In patent US10611750B2, “Tetrahydroquinoline compositions as bet bromodomain inhibitors” (FORMA Therapeutics, Inc., priority 2013, dated 2020):

Legend:
[1] = target: T1, BRD4 Bromodomain 1 (BRD4 BD1) (Homo sapiens, UniProt O60885); experiment: AlphaScreen binding assay, BRD4 BD1; conditions: His-tagged BRD4 BD1 50 nM, biotinylated H4 (1-21) K5/8/12/16 tetra-acetylated peptide 50 nM, compounds listed under IC50 range headings
T1 construct: 44-168 and BRD4 BD2
Summary of the method: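 Compound dilution series were mixed with His-tagged BRD4 bromodomain and biotinylated tetra-acetylated H4 (1-21) peptide at pH 7.3 (BD1 and peptide at 50 nM, BD2 and peptide at 100 nM). Donor and acceptor beads were then added, and plates were equilibrated at least 1 h before reading. IC50 values were fitted with a four-parameter logistic model.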

[2] = target: T2, BRD4 Bromodomain 2 (BRD4 BD2) (Homo sapiens, UniProt O60885); experiment: AlphaScreen binding assay, BRD4 BD2; conditions: His-tagged BRD4 BD2 100 nM, biotinylated H4 (1-21) K5/8/12/16 tetra-acetylated peptide 100 nM, compounds listed under IC50 range headings
T2 construct: 333-460 were cloned, expressed, and purified to homogeneity
Protocol: The binding of Example compounds to BRD4 Bromodomain 1 and BRD4 Bromodomain 2 was assessed using 384-well AlphaScreen assay technology. His-epitope tagged BRD4 BD144-168 and BRD4 BD2333-460 were cloned, expressed, and purified to homogeneity. BRD4 BD1 and BRD4 BD2 binding and inhibition was assessed by monitoring the engagement of biotinylated Histone H4 (1-21) K5/8/12/16 tetra-acetylated peptide with the targets using the AlphaScreen technology (PerkinElmer). Specifically, in a 384-well black or white flat bottom plate, BRD4 BD1 (50 nM final) or BRD4 BD2 (100 nM final) was combined with peptide (50 nM final for BD1 or 100 nM final for BD2) in 50 mM HEPES (pH 7.3), 100 mM NaCl, 0.1% (w/v) BSA, and 0.01% (w/v) Triton X-100 either in the presence of DMSO (final 1.25% DMSO) or compound dilution series in DMSO. Alpha streptavidin donor beads and Nickel-chelate acceptor beads were added to a final concentration of 10 μg/ml each. After a minimum of 1 hour equilibration, plates were read on a BMG PHERAstar FS multi-label reader (BMG LabTech). The half maximal inhibitory concentration (IC50) values were calculated using IDBS Activity Base software with a four parameter logistic curve fit by the equation y=A+((B−A)/(1+((C/x)^D))), wherein A denotes the bottom plateau of the curve, B denotes the top plateau of the curve, C denotes the x value at the middle of the curve, D denotes the slope factor, x denotes the original known x values, and y denotes the original known y values. Data was fitted using the Levenburg Marquardt algorithm.

IC50 [1]	IC50 [2]	SMILES
≥ 10 µM	≥ 0.5 µM	CC(=O)N1c2ccc(-c3cnn(C4CC4)c3)c(OCC3CNC3)c2CC[C@@H]1C [I-52, (S)-1-(5-(azetidin-3-ylmethoxy)-6-(1-cyclopropyl-1H-pyrazol-4-yl)-2-methyl-3,4-dihydroquinolin-1 (2H)-yl)ethanone]
1 to 10 µM	≥ 0.5 µM	COC(=O)N1c2ccc(-c3cnn(C4CC4)c3)c(OC3CNC3)c2CC[C@@H]1C [I-59, (S)-methyl 5-(azetidin-3-yloxy)-6-(1-cyclopropyl-1H-pyrazol-4-yl)-2-methyl-3,4-dihydroquinoline-1(2H)-carboxylate]
1 to 10 µM	0.05 to 0.5 µM	COC(=O)N1c2ccc(-c3cnn(C4CC4)c3)c(OCC3(F)COC3)c2CC[C@@H]1C [I-65, (S)-methyl 6-(1-cyclopropyl-1H-pyrazol-4-yl)-5-((3-fluorooxetan-3-yl)methoxy)-2-methyl-3,4-dihydroquinoline-1(2H)-carboxylate]
0.1 to 1 µM	0.05 to 0.5 µM	CC(=O)N1c2ccc(-c3cnn(C4COC4)c3)c(Oc3nc4ccccc4o3)c2CC[C@@H]1C [I-79, (S)-1-(5-(benzo[d]oxazol-2-yloxy)-2-methyl-6-(1-(oxetan-3-yl)-1H-pyrazol-4-yl)-3,4-dihydroquinolin-1(2H)-yl)ethanone]
1 to 10 µM	0.05 to 0.5 µM	CC(=O)N1c2ccc(-c3cnn(C4CC4)c3)c(Oc3nccc(C(F)(F)F)n3)c2CC[C@@H]1C [I-85, (S)-1-(6-(1-cyclopropyl-1H-pyrazol-4-yl)-2-methyl-5-(4-(trifluoromethyl)pyrimidin-2-yloxy)-3,4-dihydroquinolin-1 (2H)-yl)ethanone]
1 to 10 µM	0.05 to 0.5 µM	CC(=O)N1c2ccc(-c3cnn(C4CC4)c3)c(Oc3ncccc3Cl)c2CC[C@@H]1C [I-87, (S)-1-(5-(3-chloropyridin-2-yloxy)-6-(1-cyclopropyl-1H-pyrazol-4-yl)-2-methyl-3,4-dihydroquinolin-1 (2H)-yl)ethanone]
1 to 10 µM	0.05 to 0.5 µM	CC(=O)N1c2ccc(-c3cnn(C4CC4)c3)c(Oc3nc(C)cc(C)n3)c2CC[C@@H]1C [I-90, (S)-1-(6-(1-cyclopropyl-1H-pyrazol-4-yl)-5-(4,6-dimethylpyrimidin-2-yloxy)-2-methyl-3,4-dihydroquinolin-1 (2H)-yl)ethanone]
1 to 10 µM	0.05 to 0.5 µM	CC(=O)N1c2ccc(-c3cnn(C4CC4)c3)c(O/C=C/Cl)c2CC[C@@H]1C [I-277, (S,E)-1-(5-(2-chlorovinyloxy)-6-(1-cyclopropyl-1H-pyrazol-4-yl)-2-methyl-3,4-dihydroquinolin-1(2H)-yl)ethanone]
1 to 10 µM	0.05 to 0.5 µM	CNC(=O)COc1c(-c2cnn(C3COC3)c2)ccc2c1CC[C@H](C)N2C(C)=O [I-378]
1 to 10 µM	0.05 to 0.5 µM	CC(=O)N1c2ccc(-c3cnn(C4COC4)c3)c(OCc3ccno3)c2CC[C@@H]1C [I-379]
1 to 10 µM	0.05 to 0.5 µM	CC(=O)N1c2ccc(-c3cnn(C4COC4)c3)c(OCCNS(C)(=O)=O)c2CC[C@@H]1C [I-380]
1 to 10 µM	0.05 to 0.5 µM	CC(=O)N1c2ccc(-c3cnn(C4CC4)c3)c(OCc3ccno3)c2CC[C@@H]1C [I-381]
1 to 10 µM	0.05 to 0.5 µM	CNC(=O)COc1c(-c2cnn(C3CC3)c2)ccc2c1CC[C@H](C)N2C(C)=O [I-383]
1 to 10 µM	0.05 to 0.5 µM	CC(=O)N1c2ccc(-c3cnn(C4CC4)c3)c(OC3COC3)c2CC[C@@H]1C [I-384]
1 to 10 µM	≥ 0.5 µM	CC(=O)N1c2ccc(-c3cnn(C4CC4)c3)c(OCCN(C)C)c2CC[C@@H]1C [I-386]
1 to 10 µM	≥ 0.5 µM	CC(=O)N1c2ccc(-c3cnn(C4CC4)c3)c(OCC(N)=O)c2CC[C@@H]1C [I-391]
1 to 10 µM	< 0.05 µM	CC(=O)N1c2ccc(-c3cnn(C4CC4)c3)c(OCc3ccccc3)c2CC[C@@H]1C [I-393]
1 to 10 µM	0.05 to 0.5 µM	CC(=O)N1c2ccc(-c3cnn(C4CC4)c3)c(OCC#N)c2CC[C@@H]1C [I-397]
1 to 10 µM	0.05 to 0.5 µM	CC(=O)N1c2ccc(-c3cnn(C4CC4)c3)c(OCc3cccnc3)c2CC[C@@H]1C [I-399]
1 to 10 µM	0.05 to 0.5 µM	CC(=O)N1c2ccc(-c3cnn(C4CC4)c3)c(OCc3ccccn3)c2CC[C@@H]1C [I-403]
1 to 10 µM	0.05 to 0.5 µM	COc1c(-c2cnn(C3CC3)c2)ccc2c1CC[C@H](C)N2C(C)=O [I-404]
1 to 10 µM	0.05 to 0.5 µM	CC(=O)N1c2ccc(-c3cnn(C4CC4)c3)c(OCc3ccn(C)n3)c2CC[C@@H]1C [I-405]
1 to 10 µM	0.05 to 0.5 µM	CC(=O)N1c2ccc(-c3cnn(C4CC4)c3)c(OCc3cncs3)c2CC[C@@H]1C [I-406]

IC50 [1]	IC50 [2]	SMILES
1 to 10 µM	0.05 to 0.5 µM	CC(=O)N1c2ccc(-c3cnn(CC(C)(C)O)c3)c(OCC3CCOCC3)c2CC[C@@H]1C [I-414]
1 to 10 µM	0.05 to 0.5 µM	CC(=O)N1c2ccc(-c3cnn(CCS(C)(=O)=O)c3)c(OCC(=O)N(C)C)c2CC[C@@H]1C [I-417]
1 to 10 µM	0.05 to 0.5 µM	CC(=O)N1c2ccc(-c3cnn(CC(C)(C)O)c3)c(OCC(=O)N(C)C)c2CC[C@@H]1C [I-418]
1 to 10 µM	0.05 to 0.5 µM	CC(=O)N1c2ccc(-c3cnn(C4CCNCC4)c3)c(OCC(=O)N(C)C)c2CC[C@@H]1C [I-419]
1 to 10 µM	0.05 to 0.5 µM	CC(=O)N1c2ccc(-c3cnn(CC(C)(C)O)c3)c(OCC(C)C)c2CC[C@@H]1C [I-421]
1 to 10 µM	0.05 to 0.5 µM	CC(=O)N1c2ccc(-c3cnn(CCS(C)(=O)=O)c3)c(OCC(=O)N3CCCC3)c2CC[C@@H]1C [I-428]
1 to 10 µM	0.05 to 0.5 µM	CC(=O)N1c2ccc(-c3cnn(CC(C)(C)O)c3)c(OCC(=O)N3CCCC3)c2CC[C@@H]1C [I-429]
1 to 10 µM	0.05 to 0.5 µM	CC(=O)N1c2ccc(-c3cnn(CCO)c3)c(OCC(=O)N3CCCC3)c2CC[C@@H]1C [I-430]
1 to 10 µM	0.05 to 0.5 µM	CC(=O)N1c2ccc(-c3cnn(CCS(C)(=O)=O)c3)c(OC[C@H]3CCC(=O)N3)c2CC[C@@H]1C [I-432]
1 to 10 µM	0.05 to 0.5 µM	CC(=O)N1c2ccc(-c3cnn(CC(C)(C)O)c3)c(OC[C@H]3CCC(=O)N3)c2CC[C@@H]1C [I-433]
1 to 10 µM	0.05 to 0.5 µM	CC(=O)N1c2ccc(-c3cnn(CCO)c3)c(OC[C@H]3CCC(=O)N3)c2CC[C@@H]1C [I-434]
1 to 10 µM	0.05 to 0.5 µM	CC(=O)N1c2ccc(-c3cnn(C4CCNCC4)c3)c(OC[C@H]3CCC(=O)N3)c2CC[C@@H]1C [I-435]
1 to 10 µM	0.05 to 0.5 µM	CC(=O)N1c2ccc(-c3cnn(CCS(C)(=O)=O)c3)c(OCCN(C)S(C)(=O)=O)c2CC[C@@H]1C [I-436]
1 to 10 µM	0.05 to 0.5 µM	CC(=O)N1c2ccc(-c3cnn(CC(C)(C)O)c3)c(OCCN(C)S(C)(=O)=O)c2CC[C@@H]1C [I-437]
1 to 10 µM	0.05 to 0.5 µM	CC(=O)N1c2ccc(-c3cnn(CCO)c3)c(OCCN(C)S(C)(=O)=O)c2CC[C@@H]1C [I-438]
1 to 10 µM	0.05 to 0.5 µM	CC(=O)N1c2ccc(-c3cnn(C4CCNCC4)c3)c(OCCN(C)S(C)(=O)=O)c2CC[C@@H]1C [I-439]
1 to 10 µM	0.05 to 0.5 µM	CC(=O)N1c2ccc(-c3cnn(CCO)c3)c(OC[C@H]3CCNC3)c2CC[C@@H]1C [I-440]
1 to 10 µM	0.05 to 0.5 µM	CCCOc1c(-c2cnn(CCS(C)(=O)=O)c2)ccc2c1CC[C@H](C)N2C(=O)OC [I-441]
1 to 10 µM	0.05 to 0.5 µM	COC(=O)N1c2ccc(-c3cnn(CCS(C)(=O)=O)c3)c(OCC3CCOCC3)c2CC[C@@H]1C [I-448]
1 to 10 µM	0.05 to 0.5 µM	COC(=O)N1c2ccc(-c3cnn(CCO)c3)c(OCC3CCOCC3)c2CC[C@@H]1C [I-450]
1 to 10 µM	0.05 to 0.5 µM	COC(=O)N1c2ccc(-c3cnn(C4CCNCC4)c3)c(OCC3CCOCC3)c2CC[C@@H]1C [I-451]
1 to 10 µM	0.05 to 0.5 µM	COC(=O)N1c2ccc(-c3cnn(CCS(C)(=O)=O)c3)c(OCC(=O)N(C)C)c2CC[C@@H]1C [I-452]

SMILES	IC50 [1]	IC50 [2]
COC(=O)N1c2ccc(-c3cnn(C4CC4)c3)c(OC3CN(C(=O)OC(C)(C)C)C3)c2CC[C@@H]1C [I-58, (S)-methyl 5-(1-(tert-butoxycarbonyl)azetidin-3-yloxy)-6-(1-cyclopropyl-1H-pyrazol-4-yl)-2-methyl-3,4-dihydroquinoline-1(2H)-carboxylate]	≥ 10 µM	≥ 0.5 µM
